In brackets after ≈: the same amount, converted by molar mass.
Legend:
[1] = 20% 2-hydroxypropyl beta cyclodextrin, lonafarnib 12 mg/ml; cited from earlier work
[2] = formulation of lonafarnib into a liquid vehicle with 2-hydroxypropyl beta cyclodextrin; type: physicochemical; settings: 20% 2-hydroxypropyl beta cyclodextrin, lonafarnib 12 mg/ml
Procedure: A prior publication describing formulation of lonafarnib into a liquid vehicle with a cyclodextrin is known (Hernandez et al., Science Translational Medicine, 11, eaat3005 (2019)), but based on the disclosed data, even using high concentration (20%) of 2-hydroxypropyl beta cyclodextrin (hydroxypropyl betadex), a suspension of lonafarnib was obtained for the (pre)clinically relevant concentration of the drug (12 mg/ml). […] Consequently, present invention provides a significant formulation improvement over the teachings of said journal publication.

[3] = water; cited from earlier work

NC(=O)N1CCC(CC(=O)N2CCC([C@H]3c4ncc(Br)cc4CCc4cc(Cl)cc(Br)c43)CC2)CC1 [Lonafarnib]
physical state of liquid formulation obtained (Hernandez et al. 2019) [1]: suspension | physical state of liquid formulation obtained (experiment reproduced by Cyclolab Ltd.) [2]: rough suspension, unsuitable for parenteral application | aqueous solubility [3]: 0.8 µg/mL (≈ 1.25 µM)

From US20210145816A1, “PHARMACEUTICAL FORMULATION OF LONAFARNIB WITH A SULFOBUTYLETHER BETA-CYCLODEXTRIN” (Cyclolab Cyclodextrin Research and Development Laboratory …, priority 2019, published 2021)
